Measurements reported in patent US5391555A, “Methods for treating inflammatory bowel disease with leukotriene synthesis inhibitors” (Miles Inc., priority 1993, dated 1995).

Tests used:
edema of the mouse ear = experiment: Mouse Ear Inflammation Test (arachidonic acid-induced edema); assay type: in vivo; conditions: oral, 60 minutes before arachidonic acid, swelling at 30 minutes, averaged over several experiments, read-out: Edema formation - ED50
Protocol: Because it is known that leukotrienes are the major mediators of the edema which follows the application of arachidonic acid on the skin of the mouse ear and because the human clinical trials have implicated leukotrienes in the pathology of Inflammatory Bowel Disease (IBD), the mouse ear inflammation test can be used as a model to predict efficacy in IBD.
In this test edema is induced by the topical application of 10 μl of a 20% arachidonic acid solution on the mouse ear. 60 minutes before arachidonic acid application the animals were treated orally with compound or vehicle. 30 minutes after the induction of inflammation the swelling of the ear was measured. The results averaged over several experiments are shown below.

[1] = test system: Dextran Sulfate-induced colitis in mice; experiment: Dextran Sulfate-induced colitis in mice; assay type: in vivo; conditions: 10 mg/kg or 30 mg/kg orally bid; 5% dextran sulfate in drinking water
Source text: Mice, when provided 5% high molecular weight dextran sulfate in their drinking water for 5-7 days, develop an acute colitis with diarrhea, gross rectal bleeding, and weight loss (Okayasu et al., 1990, Gastroenterol, 98:694-702).

human bronchial muscle = human bronchial muscle contraction stimulated by anti-human IgE; assay type: cell-based; conditions: for IC50: contraction stimulated by anti-human IgE (1/1000), read-out: ED50 human bronchial muscle
Protocol: For the measurement of human bronchial muscle contraction, bronchial rings were obtained from patients undergoing surgical resection of the lungs typical for lung cancer. The muscle rings were set up in organ baths under an initial load of 3 g and contracted with 100 μM acetylcholine in Tyrode's solution to provide a standardized contraction. The organs were then washed until they returned to the baseline tension in Tyrode's solution containing atropine 1 μM, indomethacin 3 μM and polaramine 1 μM at 37° C.
Contraction was stimulated by the treatment of the muscle strips with anti-human IgE (1/1000) with or without LSI. The intensity of the contractions were expressed as the percentage of the acetylcholine-inducedcontraction. The percentage of inhibition by the LSI was calculated from the ratio of the relative contractions. The activity of several of the well known LSIs of other structural classes (Zileuton & MK886) are compared below with the quinolines of the present invention.

[2] = test system: LTB4 / human blood polymorphonuclear leukocytes (PMN); experiment: response of human blood polymorphonuclear leukocytes (PMN): A23187-stimulated LTB4 in human whole blood; assay type: cell-based; conditions: Leukocyte, 0.5 h, LTB4, 30 μM ionophore A23187, 30 min, 37° C., read-out: ED50 human whole blood
Protocol: For evaluation of the response of human blood polymorphonuclear leukocytes (PMN), 0.5 ml aliquots of human blood with heparin as the anticoagulant are preincubated for 10 minutes with 2 μl dimethylsulfoxide (DMSO) alone or with DMSO containing the compound to be tested (shaken in water bath at 37° C.).
The PMN are then stimulated with a final concentration 30 μM of the ionophore A23187 for 30 minutes at 37° C. The reaction is terminated with 1 ml methanol. The incubate is cooled 20 minutes in an ice bath, vortexed, then centrifuged at 13,000 g.
The amount of LTB4 present in the removed supernatant is analysed by HPLC and/or radioimmune assays.

TxB2 = experiment: TNBS-induced colitis in rats: TxB2 synthesis by excised colonic tissue; assay type: in vivo, Male Wistar rats; conditions: 30 and 100 mg/kg orally bid, 7 days; tissue incubated in vitro 20 minutes
Protocol: (§1) A colitis resembling human ulcerative colitis can be induced in rats by the intracolonic infusion of trinitrobenzene sulfonic acid (Wallace et al., 1990, Am J Physiol. 258:G527-34).
(§2) Male Wistar rats were lightly anesthetized with ether, and a 2.3 mm rubber cannula inserted into the lumen of the colon via the anus. The cannula was advanced so that the tip was approximately 8 cm proximal to the anus. Colitis is induced by the administration of 0.25 ml of 50% ethanol (vol/vol) containing 30 mg of 2,4,6-trinitrobenzene sulfonic acid (TNB) through the cannula. After instilling the TNB-ethanol solution, the cannula was left in place for a few seconds then gently removed.
(§3) Animals were sacrificed at various time intervals after the administration of TNB-ethanol for examination of the level of LTB4 in the tissue and for histological examination.
(§4) R-(-)-2-cyclopentyl-2-[4-(2-quinolinyl-methoxy)-phenyl]-acetic acid, at doses of 30 and 100 mg/kg or placebo is administered orally to these animals bid beginning 2 hours before induction of colitis and continuing for the next 7 days. Two hours after the administration of the test compound, animals are sacrificed and samples of the grossly inflammed colonic tissue are excised and incubated in vitro for 20 minutes.

[3] = test system: TNBS-induced colitis in rats; experiment: TNBS-induced colitis in rats: colonic damage; assay type: in vivo, Male Wistar rats; conditions: 30 and 100 mg/kg orally bid, 7 days; 14 days following induction; vs placebo
Protocol: as §1, §2, §3
as §4, with “minutes. […]” for “minutes.”

bronchodilator in man = conditions: compared with prediction from inhibition of neutrophil-dependent LTB4 synthesis at blood concentration; cited from earlier work
LTB4 = experiment: TNBS-induced colitis in rats: LTB4 synthesis by excised colonic tissue; assay type: in vivo, Male Wistar rats; conditions: 30 and 100 mg/kg orally bid, 7 days; tissue incubated in vitro 20 minutes
Protocol: as §1, §2, §3, §4

Compound | ED50 (edema of the mouse ear) [mg/kg] | IC50 (human bronchial muscle) [nM] | IC50 [2] [nM] | other results
CS(=O)(=O)NC(=O)[C@@H](c1ccc(OCc2ccc3ccccc3n2)cc1)C1CCCCCC1 [Formula II, R-(-)-2-cycloheptyl-N-methylsulfonyl-2-[4-(2-quinolinyl-methoxy)-phenyl]-acetamide] | 5.2 | 800 | 1100 | occult blood in the stool [1]: reduction in occult blood in the stool; stool consistency [1]: improvement in stool consistency; symptoms of colitis [1]: decrease in the symptoms of colitis; weight loss [1]: reduction in weight loss
O=C(O)C(O)(c1ccc(OCc2ccc3ccccc3n2)cc1)C1Cc2ccccc2C1 (single isomer, unassigned; (-)) [Formula IV, (-)-2-hydroxy-2-(2-indanyl)-2-[4-(2-quinolinyl-methoxy)-phenyl]-acetic acid] | 15 | 100 | 4500 | 
CC(C)Cc1cc(C(C(=O)O)C2CCCCCC2)ccc1OCc1ccc2ccccc2n1 (single isomer, unassigned; (-)) [Formula III, (-)-2-cycloheptyl-2-[3-isobutyl-4-(2-quinolinyl-methoxy)-phenyl]-acetic acid] | 12.5 | 1000 | 3000 | 
O=C(O)[C@@H](c1ccc(OCc2ccc3ccccc3n2)cc1)C1CCCC1 [Formula I, R-(-)-2-cyclopentyl-2-[4-(2-quinolinyl-methoxy)-phenyl]-acetic acid] | 48.7 | 800 | 17000 | synthesis of TxB2 in culture supernatants of inflamed colonic tissue (TxB2): not of TxB2; frequency and extent of the ulcerations [3]: reduces both the frequency of adhesions and the frequency and extend of the ulcerations; frequency of adhesions [3]: reduces both the frequency of adhesions; activity as a bronchodilator in man (bronchodilator in man): considerably greater than would have been predicted; synthesis of LTB4 in culture supernatants of inflamed colonic tissue (LTB4): markedly inhibited
CC(C)c1ccc2c(c1)c(SC(C)(C)C)c(CC(C)(C)C(=O)O)n2Cc1ccc(Cl)cc1 [MK886, reference compound] | ~100 |  | 430 | percentage of inhibition, human bronchial muscle (human bronchial muscle; @ μM (concentration not given), anti-human IgE (1/1000)): 0-39%
CC(c1cc2ccccc2s1)N(O)C(N)=O (stereo not drawn) [Zileuton, reference compound] | 47.4 |  | 690 | inhibition at 1 µM (human bronchial muscle; @ 1 μM, anti-human IgE (1/1000), read-out: percentage of inhibition, human bronchial muscle): 4%
